From patent publication US20110089073A1, “Methods And Compositions For Hydrophobic Modification Of Oral Cavity Surfaces” (The Procter & Gamble Company, priority 2009, published 2011)

What was measured:
[1] = Water contact angle method on treated enamel chips; design: species or system bovine
Experimental: A water contact angle method is used to determine the degree of hydrophobicity imparted by the present compositions to tooth surfaces. […] The method uses polished bovine enamel chips that are cleaned using a prophy paste followed by an acetone wipe and water rinse in a sonicator. Chips are then allowed to air dry for 60-90 minutes, and then baseline water contact angles are measured using prop Shape Analysis System DSA 10-MK2 from KRUSS. Chips with baseline water contact angle of about 48.00±5.00 are selected and randomized into groups of three per treatment. Following randomization each group of three chips are treated with a solution or dentifrice slurry (1:3 ratio) containing the test ingredient followed by a water rinse. The chips are then soaked in human saliva for an hour at 37° C. After the saliva soak, the chips are removed, rinsed with water and air dried. Contact angle reading is taken after at least 2 hours of drying. Water or regular toothpaste (without organophosphate) are used as controls. […] An increase in contact angle (post-treatment value—baseline) represents increased hydrophobic character of the surface; a decrease represents increased hydrophilic character of the surface.

[2] = In vitro erosion cycling protocol (citric acid challenge, TMR); design: species or system human; conditions: teeth treated with compositions containing the organophosphate
[3] = Dissolution of pretreated hydroxy apatite powder in acetate buffer pH 4.5
Experimental: In this protocol, HAP powder is pretreated with dentifrice slurry supernatant (20 g supernate/200 mg HAP powder) followed by three times washing with water. After the last wash, 2 ml of water is added and vortexed to form a uniform slurry. In a separate beaker, 25 ml of 0.1M acetate buffer is prepared and pH adjusted to 4.5. To this buffer solution having initial pH of 4.5, a sample of 0.5 ml of pre-treated HAP slurry is added and dissolution profile of the pretreated HAP powder is monitored via changes in pH of the acetate buffer solution. The pH change is measured and recorded using a Brinkman Titrino titrator device for 30 minutes. With HAP dissolution, pH increases and the pH change is compared to that of a plain water treated HAP as control and is used to calculate percent inhibition of HAP mineral loss.

[4] = Table 1, change from baseline after treatment, 1 h saliva soak, concentrations as in label
[5] = Table 1, vs water treated HAP, concentrations as in label
[6] = Table 3, with or without water soluble hydrophilic compound

Compound	Δ Water Contact Angle [1, 4]	Tooth mineral surface loss from acid exposure [2]	% Inhibition of HAP Surface Loss [3, 5]	other results
CCCCCCCCCCCCOS(=O)(=O)[O-].[Na+] [1% SLS, sodium lauryl sulfate, reference compound]	0.23	–	–	–
CCCCCCCCCCCCOP(=O)([O-])[O-].[Na+].[Na+] [Sodium dodecyl phosphate]	–	significantly less tooth mineral surface loss	–	–
Potassium Laureth Phosphate [1% Potassium Laureth Phosphate]	45.43	–	89.7%	–
Potassium Laureth-3 Phosphate [1% Potassium Laureth-3 Phosphate]	23.2	–	94.8%	–
Sodium Dodeceth-1 Phosphate [1% Sodium Dodeceth-1 Phosphate]	32.13	significantly less tooth mineral surface loss	94.5%	Δ Water Contact Angle ([1]; Table 2, concentration 0.25%): 19.07; Δ Water Contact Angle ([1]; Table 2, concentration 0.5%): 26.57; Δ Water Contact Angle ([1]; Table 2, concentration 1.0%): 43.77; Δ Water Contact Angle ([1]; Table 2, concentration 2.0%): 61.40; Δ Water Contact Angle [1, 6]: 32.13; % Inhibition of HAP Surface Loss ([3]; Table 2, concentration 0.25%): 58.56%; % Inhibition of HAP Surface Loss ([3]; Table 2, concentration 0.5%): 75.69%; % Inhibition of HAP Surface Loss ([3]; Table 2, concentration 1.0%): 92.03%; % Inhibition of HAP Surface Loss ([3]; Table 2, concentration 2.0%): 92.83%; % Inhibition of HAP Surface Loss [3, 6]: 94.49%
Sodium Dodeceth-9 Phosphate [1% Sodium Dodeceth-9 Phosphate]	16.43	significantly less tooth mineral surface loss	45.24%	–
